For orientation: IC50 means the concentration at which inhibition is half-maximal.

Consider twelve molecules from patent publication US12209102B2, “Heterocyclic compounds and uses thereof” (Kumquat Biosciences Inc., priority 2022, dated 2025).

For one test, the target named is T1, K-Ras G12D (Homo sapiens, UniProt P01116, G12D).
T1 construct: made in house; host or cells: E. coli BL21 (DE3)
Briefly: HTRF resonance energy transfer assay, K-Ras G12D / SOS1 interaction. Conditions: HTRF assay of Example 5; read-out: IC50 against K-Ras G12D. The class given is biochemical. In short, it runs like this: (§1)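 Buffer about 5 mM HEPES pH 7.4 with ~150 mM NaCl, ~1 mM DTT, 0.05% BSA, 0.0025% (v/v) Igepal. Protein constructs used at molarity matching the IC50 range studied (e.g. ~500 nM). FRET between tagged K-Ras and hSOS1 measured after short incubation.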
A general note: Time-resolved FRET reads energy transfer from a long-lived donor to a nearby acceptor.

For the next test, the target named is T2, K-Ras G12S (Homo sapiens, UniProt P01116, G12S).
T2 construct: made in house; host or cells: E. coli BL21 (DE3)
T2 sequence (P01116 1-188 isoform P01116-2 G12S): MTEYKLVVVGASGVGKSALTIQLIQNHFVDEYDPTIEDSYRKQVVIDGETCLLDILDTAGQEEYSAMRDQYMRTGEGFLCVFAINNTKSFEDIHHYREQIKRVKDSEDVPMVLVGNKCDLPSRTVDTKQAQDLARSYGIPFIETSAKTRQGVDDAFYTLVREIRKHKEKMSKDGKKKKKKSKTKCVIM
The test is described as follows: HTRF resonance energy transfer assay, K-Ras G12S / SOS1 interaction. The class given is biochemical. Conditions: HTRF assay of Example 5; read-out: IC50 against K-Ras G12S. In short, it runs like this: as §1

The next test deals with T3, K-Ras G12V (Homo sapiens, UniProt P01116, G12V).
T3 construct: made in house; host or cells: E. coli BL21 (DE3)
T3 sequence (P01116 1-188 isoform P01116-2 G12V): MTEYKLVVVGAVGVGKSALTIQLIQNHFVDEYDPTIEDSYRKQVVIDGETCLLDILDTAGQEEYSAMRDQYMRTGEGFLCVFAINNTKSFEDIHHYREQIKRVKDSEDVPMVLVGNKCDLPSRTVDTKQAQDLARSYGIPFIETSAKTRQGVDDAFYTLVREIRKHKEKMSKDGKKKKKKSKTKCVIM
Briefly: HTRF resonance energy transfer assay, K-Ras G12V / SOS1 interaction. The class given is biochemical. The settings on record: HTRF assay of Example 5; read-out: IC50 against K-Ras G12V. In short, it runs like this:
as §1

For the next test, the target named is T4, K-Ras WT (Homo sapiens, UniProt P01116).
T4 construct: made in house; host or cells: E. coli BL21 (DE3)
T4 sequence (P01116 1-188 isoform P01116-2): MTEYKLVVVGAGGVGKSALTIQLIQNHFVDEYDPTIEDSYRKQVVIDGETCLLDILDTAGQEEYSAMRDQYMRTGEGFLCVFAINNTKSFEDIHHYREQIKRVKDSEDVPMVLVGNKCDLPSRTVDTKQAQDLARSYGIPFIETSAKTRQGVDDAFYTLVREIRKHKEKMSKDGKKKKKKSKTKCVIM
Briefly: HTRF resonance energy transfer assay, K-Ras WT / SOS1 interaction. The class given is biochemical. The settings on record: HTRF assay of Example 5; read-out: IC50 against K-Ras WT. In short, it runs like this: as §1

A further test has as its system GP2D cells. Briefly: Ras cellular assay, growth of cells with K-Ras G12D mutation (CellTiter-Glo). The class given is cell-based. The settings on record: cell growth, Example 9, G12D mutation, read-out: IC50 against GP2D cells.
A further test concerns A549 cells. The test is described as follows: Ras cellular assay, growth of cells with K-Ras G12S mutation (CellTiter-Glo). The settings on record: Homo sapiens, cell growth, Example 9, G12S mutation, read-out: IC50 against A549 cells. It counts as cell-based. In short, it runs like this: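 Growth inhibition IC50 values come from four-parameter fits of CellTiter-Glo luminescence, read about 6 days after compound addition. G12S-mutant A549 cells (e.g. 800/well, RPMI-1640 + 10% heat-inactivated FBS) were plated in tissue-culture-treated or ultra-low-attachment 384-well format. Dosing began the following day with serial dilutions, e.g. 10 points, 3-fold.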

The test system of another test is SW620 cells. Briefly: Ras cellular assay, growth of cells with K-Ras G12V mutation (CellTiter-Glo). The settings on record: Homo sapiens, SW-620; cell growth, Example 9, G12V mutation; read-out: IC50 against SW620 cells. It counts as cell-based. In short, it runs like this:
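IC50 values came from a four-parameter fit of CellTiter-Glo viability, read roughly 6 days after dosing with e.g. a 10-point threefold dilution series. G12V-mutant SW620 cells (e.g. 800 per well) had been plated the previous day in RPMI-1640/10% heat-inactivated FBS, on tissue culture-treated or ultra-low attachment plates.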

Bounds are passed on as bounds.

T1 sequence (P01116 1-188 isoform P01116-2 G12D): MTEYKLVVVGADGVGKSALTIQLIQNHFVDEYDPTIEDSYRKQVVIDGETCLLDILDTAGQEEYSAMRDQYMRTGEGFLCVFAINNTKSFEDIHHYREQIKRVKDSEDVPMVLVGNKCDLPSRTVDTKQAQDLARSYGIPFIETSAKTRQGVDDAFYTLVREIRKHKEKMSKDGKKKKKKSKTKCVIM

Turning to `C[C@@H](O)[C@H]1COc2c(Cl)c(-c3ccc(F)c4sc(N)c(C#N)c34)c(F)c3nc(OC[C@@]45CCCN4C[C@H](F)C5)nc(c23)N1CCC(F)F` (single isomer, unassigned) [Compound 820], the IC50 was less than 0.1 µM on K-Ras G12D; less than 0.1 µM on K-Ras G12S; less than 0.1 µM at K-Ras G12V; less than 0.1 µM at K-Ras WT; less than 0.5 µM in the test with GP2D cells; less than 5 µM in the test on A549 cells. The IC50 in the test on SW620 cells is less than 5 µM.
In the case of `C=C[C@H]1COc2c(Cl)c(-c3ccc(F)c4sc(N)c(C#N)c34)c(F)c3nc(OC[C@@]45CCCN4C[C@H](F)C5)nc(c23)N1CC(F)F` (single isomer, unassigned) [Compound 890], the IC50 at K-Ras G12D is less than 0.1 µM; on K-Ras G12S it was less than 0.1 µM; on K-Ras G12V, less than 0.1 µM; at K-Ras WT, less than 0.1 µM; in the test with GP2D cells it was less than 0.5 µM; in the test with A549 cells, less than 5 µM. The IC50 with SW620 cells was less than 5 µM.
As for `CC(O)C1COc2c(Cl)c(-c3ccc(F)c4sc(N)c(C#N)c34)c(F)c3nc(OC[C@@]45CCCN4C[C@H](F)C5)nc(c23)N1CC(F)F` (single isomer, unassigned) [Compound 899], the IC50 was less than 0.1 µM at K-Ras G12D; less than 0.1 µM at K-Ras G12S; less than 0.1 µM at K-Ras G12V; less than 0.1 µM at K-Ras WT; less than 0.5 µM in the test with GP2D cells; less than 5 µM in the test with A549 cells. Further, the IC50 in the test on SW620 cells is less than 5 µM.
`N#Cc1c(N)sc2c(F)ccc(-c3c(Cl)c4c5c(nc(OC[C@@]67CCCN6C[C@H](F)C7)nc5c3F)N(CC(F)F)C(CCO)CO4)c12` (single isomer, unassigned) [Compound 1049]: the IC50 at K-Ras G12D was less than 0.1 µM; on K-Ras G12S, less than 0.1 µM; on K-Ras G12V, less than 0.1 µM; at K-Ras WT it was less than 0.1 µM; with GP2D cells, less than 0.5 µM; with A549 cells it was less than 5 µM. In addition, the IC50 with SW620 cells was less than 5 µM.
For the molecule `N#Cc1c(N)sc2c(F)ccc(-c3c(Cl)c4c5c(nc(OC[C@@]67CCCN6C[C@H](F)C7)nc5c3F)N(CC(F)F)CCC(CO)O4)c12` (single isomer, unassigned) [Compound 1207], the IC50 was less than 0.1 µM at K-Ras G12D; less than 0.1 µM on K-Ras G12S; less than 0.1 µM at K-Ras G12V; less than 0.1 µM on K-Ras WT; less than 0.5 µM with GP2D cells; less than 5 µM with A549 cells. Also, in the test on SW620 cells, the IC50 is less than 5 µM.
Consider `CCN1CCOc2c(Cl)c(-c3ccc(F)c4sc(N)c(C#N)c34)c(F)c3nc(OC[C@@]45CCCN4C[C@H](F)C5)nc1c23` [Compound 625, 2-amino-4-(8-chloro-4-ethyl-10-fluoro-2-(((2R,7aS)-2-fluorotetrahydro-1H-pyrrolizin-7a(5H)-yl)methoxy)-5,6-dihydro-4H-[1,4]oxazepino[5,6,7-de]quinazolin-9-yl)-7-fluorobenzo[b]thiophene-3-carbonitrile], for which the IC50 at K-Ras G12D was less than 0.1 µM; on K-Ras G12S it was less than 0.1 µM; at K-Ras G12V, less than 0.1 µM; at K-Ras WT it was less than 0.1 µM; in the test with GP2D cells it was less than 0.5 µM; in the test on A549 cells, less than 5 µM.
Regarding `N#Cc1c(N)sc2c(F)ccc(-c3c(Cl)c4c5c(nc(OC[C@@]67CCCN6C[C@H](F)C7)nc5c3F)N(CC3CC3C#N)CCO4)c12` (stereo partly drawn) [Compound 962, 2-amino-4-(8-chloro-4-((2-cyanocyclopropyl)methyl)-10-fluoro-2-(((2R,7aS)-2-fluorotetrahydro-1H-pyrrolizin-7a(5H)-yl)methoxy)-5,6-dihydro-4H-[1,4]oxazepino[5,6,7-de]quinazolin-9-yl)-7-fluorobenzo[b]thiophene-3-carbonitrile], the figures for the IC50 in the test with GP2D cells, in the test on A549 cells and in the test on SW620 cells were less than 0.5 µM, less than 5 µM and less than 5 µM, respectively.
Turning to `N#Cc1c(N)sc2c(F)ccc(-c3c(Cl)c4c5c(nc(OC[C@@]67CCCN6C[C@H](F)C7)nc5c3F)N(CC(F)F)CC(C(F)(F)F)O4)c12` (stereo partly drawn) [Compound 1008, 2-amino-4-(8-chloro-4-(2,2-difluoroethyl)-10-fluoro-2-(((2R,7aS)-2-fluorotetrahydro-1H-pyrrolizin-7a(5H)-yl)methoxy)-6-(trifluoromethyl)-5,6-dihydro-4H-[1,4]oxazepino[5,6,7-de]quinazolin-9-yl)-7-fluorobenzo[b]thiophene-3-carbonitrile], the IC50 was less than 0.1 µM on K-Ras G12D; less than 0.1 µM on K-Ras G12V; less than 0.1 µM on K-Ras WT; less than 0.5 µM with GP2D cells; less than 5 µM with A549 cells; less than 5 µM in the test on SW620 cells.
Turning to `CC1Oc2c(Cl)c(-c3ccc(F)c4sc(N)c(C#N)c34)c(F)c3nc(OC[C@@]45CCCN4C[C@H](F)C5)nc(c23)N(CC(F)F)C1CC#N` (stereo partly drawn) [Compound 1015, 2-amino-4-(8-chloro-5-(cyanomethyl)-4-(2,2-difluoroethyl)-10-fluoro-2-(((2R,7aS)-2-fluorotetrahydro-1H-pyrrolizin-7a(5H)-yl)methoxy)-6-methyl-5,6-dihydro-4H-[1,4]oxazepino[5,6,7-de]quinazolin-9-yl)-7-fluorobenzo[b]thiophene-3-carbonitrile], the IC50 with GP2D cells was less than 0.5 µM; in the test on A549 cells it was less than 5 µM; in the test on SW620 cells, less than 5 µM.
On to `N#Cc1c(N)sc2c(F)ccc(-c3c(Cl)c4c5c(nc(OC[C@@]67CCCN6C[C@H](F)C7)nc5c3F)N(CC(F)F)C(CO)CO4)c12` (stereo partly drawn) [Compound 1037, 2-amino-4-(8-chloro-4-(2,2-difluoroethyl)-10-fluoro-2-(((2R,7aS)-2-fluorotetrahydro-1H-pyrrolizin-7a(5H)-yl)methoxy)-5-(hydroxymethyl)-5,6-dihydro-4H-[1,4]oxazepino[5,6,7-de]quinazolin-9-yl)-7-fluorobenzo[b]thiophene-3-carbonitrile], for which the IC50 is less than 0.5 µM with GP2D cells, less than 5 µM with A549 cells and less than 5 µM in the test with SW620 cells.
In the case of `N#Cc1c(N)sc2c(F)ccc(-c3c(Cl)c4c5c(nc(OC[C@@]67CCCN6C[C@H](F)C7)nc5c3F)N(CC(F)F)C(C(F)F)CO4)c12` (stereo partly drawn) [Compound 1105, 2-amino-4-(8-chloro-4-(2,2-difluoroethyl)-5-(difluoromethyl)-10-fluoro-2-(((2R,7aS)-2-fluorotetrahydro-1H-pyrrolizin-7a(5H)-yl)methoxy)-5,6-dihydro-4H-[1,4]oxazepino[5,6,7-de]quinazolin-9-yl)-7-fluorobenzo[b]thiophene-3-carbonitrile], the IC50 on K-Ras G12D is less than 0.1 µM; on K-Ras G12S it was less than 0.1 µM; on K-Ras WT it was less than 0.1 µM; in the test with GP2D cells, less than 0.5 µM; in the test with A549 cells, less than 5 µM; in the test with SW620 cells, less than 5 µM.
`N#Cc1c(N)sc2c(F)ccc(-c3c(Cl)c4c5c(nc(OC[C@@]67CCCN6C[C@H](F)C7)nc5c3F)N(C3CC3)CCCO4)c12` [Compound 1204, 2-amino-4-(9-chloro-4-cyclopropyl-11-fluoro-2-(((2R,7aS)-2-fluorotetrahydro-1H-pyrrolizin-7a(5H)-yl)methoxy)-4,5,6,7-tetrahydro-[1,5]oxazocino[4,3,2-de]quinazolin-10-yl)-7-fluorobenzo[b]thiophene-3-carbonitrile]: the IC50 with GP2D cells was less than 0.5 µM; with A549 cells, less than 5 µM; in the test with SW620 cells it was less than 5 µM.
